PubChem BioAssay (NCI)
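Method: 48-hour compound exposure of cells in 96-well plates, five concentrations, linear interpolation of endpoints. Abbreviation: GI50, concentration required for 50% inhibition of growth. TGI denotes the concentration required for complete inhibition of growth.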

Tests used:
Assay in all cases: NCI tumour cell line growth inhibition, 48 h
[1] = system: CAKI-1 renal
[2] = system: HOP-62 NSCLC
[3] = system: KM12 colon
[4] = system: SN12C renal
[5] = system: SNB-19 CNS
[6] = system: SR leukemia
[7] = system: BT-549 breast
[8] = system: HS 578T breast
[9] = system: MDA-MB-231 breast
[10] = system: MDA-MB-435

Row | SMILES | TGI [1] [µM] | TGI [2] [µM] | TGI [3] [µM] | TGI [4] [µM] | TGI [5] [µM] | TGI [6] [µM] | GI50 [7] [µM] | TGI [7] [µM] | GI50 [2] [µM] | GI50 [8] [µM] | TGI [8] [µM] | GI50 [3] [µM] | GI50 [9] [µM] | TGI [9] [µM] | GI50 [10] [µM] | TGI [10] [µM] | GI50 [4] [µM] | GI50 [5] [µM] | GI50 [6] [µM] | GI50 [1] [µM]
1 | NC(=O)c1ccccc1NC(=O)C(=O)Nc1n[nH]c(N)n1 | > 100 | > 100 | > 100 | > 100 | > 100 | > 100 |  |  |  |  |  |  |  |  |  |  |  |  |  | 
2 | CN(C)CCCNC(=O)c1cccc2nc3ccccc3nc12 | > 78.2 | 45.5 | 49.9 | > 100 | > 100 | > 100 |  |  |  |  |  |  |  |  |  |  |  |  |  | 
3 | C=C1C(=O)O[C@H]2[C@H]1CC/C(COC(=O)c1cccc3ccccc13)=C\CC[C@@]1(C)O[C@@H]21 |  | 3.68 | 4.99 | 3.67 | 3.19 | > 100 | 1.05 | 2.37 | 1.76 | 1.98 | 6.01 | 2.07 | 1.69 | 3.68 | 1.53 | 3.35 | 1.73 | 1.57 | 0.363 | 
4 | COc1ccc(/C=c2\sc3nnc(CCC(=O)Nc4cccc(C(F)(F)F)c4)n3c2=O)cc1 | > 100 | > 100 | > 100 | > 100 | > 100 | 75.8 |  |  |  |  |  |  |  |  |  |  |  |  |  | 
5 | O=NNc1ccc(Sc2ccc3ccccc3c2)cn1 | > 100 | 50.2 | > 100 | > 100 | > 100 | > 100 |  | 77.1 |  |  | > 100 |  |  | > 100 |  |  |  |  |  | 
6 | CCOc1ccc(/C=N\N2C(=O)c3ccccc3C2=O)cc1 | > 100 | > 100 | > 100 | > 100 | > 100 | > 100 |  |  |  |  |  |  |  |  |  |  |  |  |  | 
7 | CC(N)CN.CC(N)CN.[Cl-].[O]=[Os+2]=[O] (stereo not drawn) | > 100 |  | > 100 | > 100 | > 100 | > 100 |  |  |  |  |  | > 100 |  |  |  |  | > 100 | > 100 | 28.6 | > 100
8 | C=C(CS(=O)(=O)c1ccccc1)C(=O)OCC | 33.9 |  | 32.6 | 31.1 | 37.9 |  |  |  |  |  |  |  |  |  |  |  |  |  |  | 
9 | COc1ccc(/C=C/c2ccnc3ccccc23)cc1 | 31.6 | 35.9 | 30.1 | 32.7 | 36.8 | 61.1 |  |  |  |  | 48.8 |  |  |  |  | 31.2 |  |  |  | 
10 | O=[N+]([O-])c1ccc(Oc2cccc(C(F)(F)F)c2)c([N+](=O)[O-])c1 | 21.5 | 16.1 | 6.73 | 13.4 | 18.3 | 1.82 |  |  | 4.01 | 3.99 | 32 | 2.52 | 3.17 | 10.2 | 1.67 | 3.93 | 3.63 | 5.25 | 0.286 | 3.08
11 | COc1cc(C2CC(=O)c3c(C)nn(-c4nc5ccccc5[nH]4)c3C2)cc(OC)c1OC (stereo not drawn) | > 100 | > 100 | > 100 |  |  | > 100 | 76.6 | > 100 | 3.61 |  |  | > 100 |  |  | > 100 | > 100 |  |  | > 100 | > 100
12 | CN(C(=O)C12C3C4C1C1C2C3C41C(=O)N(C)C(C)(C)C)C(C)(C)C (stereo not drawn) | > 50 | > 50 |  | > 50 | > 50 | > 50 |  |  |  |  |  |  |  |  |  |  |  |  |  | 
